Reference: US20170121295A1, “POLYCYCLIC LPA1 ANTAGONIST AND USES THEREOF” (AMIRA PHARMACEUTICALS, INC., priority 2010, published 2017)

Columns and labels:
[1] = Solid form stability on storage at elevated relative humidity (XRPD); assay type: physicochemical
From the text: X-Ray powder diffraction patterns were collected on a Bruker AXS C2 GADDS or Bruker AXS D8 Advance diffractometer.
X-Ray Powder Diffraction patterns were collected on a Bruker D8 diffractometer using Cu Kα radiation (40 kV, 40 mA), θ−2θ goniometer, and divergence of V4 and receiving slits, a Ge monochromator and a Lynxeye detector. The instrument was performance checked using a certified Corundum standard (NIST 1976). The software used for data collection was Diffrac Plus XRD Commander v2.5.0 and the data were analyzed and presented using Diffrac Plus EVA v 11.0.0.2 or v 13.0.0.2. Samples were run under ambient conditions as flat plate specimens using powder. Approximately 5 mg of the sample was gently packed into a cavity cut into polished, zero-background (510) silicon wafer. The sample was rotated in its own plane during analysis. The details of the data collection are: • Angular range: 2 to 42° 2θ • Step size: 0.05° 2θ • Collection time: 0.5 s·step^−1

[2] = Gravimetric Vapour Sorption (GVS); assay type: physicochemical
Procedure: In some embodiments, sorption isotherms were obtained using a SMS DVS Intrinsic moisture sorption analyzer, controlled by SMS Analysis Suite software. The sample temperature was maintained at 25° C. by the instrument controls. The humidity was controlled by mixing streams of dry and wet nitrogen, with a total flow rate of 200 ml·min−1. The relative humidity was measured by a calibrated Rotronic probe (dynamic range of 1.0-100% RH), located near the sample. The weight change (mass relaxation) of the sample as a function of % RH was constantly monitored by the microbalance (accuracy ±0.005 mg). Typically 5-20 mg of sample was placed in a tared mesh stainless steel basket under ambient conditions. The sample was loaded and unloaded at 40% RH and 25° C. (typical room conditions). A moisture sorption isotherm was performed as outlined below (2 scans giving 1 complete cycle). The standard isotherm was performed at 25° C. at 10% RH intervals over a 0.5-90% RH range.
The sample was recovered after completion of the isotherm and re-analyzed by XRPD.

[3] = Solubility assessment at various pH levels (solubility profile); assay type: physicochemical; conditions: 0.15M NaCl solution, saline or isotonic, thermodynamic from solid
Procedure: For solubility assessment at various pH levels sufficient material to produce a maximum concentration of 10 mg·ml^−1 of API was treated with 0.15M NaCl solution and then the pH adjusted with HCl or NaOH solutions to achieve the desired pH levels. The suspensions were allowed to equilibrate for 2 hours and the pH measured and adjusted if necessary. Suspensions were then filtered and the amount of dissolved API quantified by HPLC against a standard reference solution.
Analysis was performed on an Agilent HP1100 series system equipped with a diode array detector and using ChemStation software vB.02.01-SR1.
The solubility of both the free acid and amorphous sodium salt was determined at a range of pH values.

[4] = Metabolite identification in liver microsomes; assay type: in vitro ADME, rat, dog, monkey, human; conditions: 30 μM Compound 1, 60 minutes
Procedure: To determine the qualitative metabolic profile, 30 μM of Compound 1 was incubated aerobically with rat, dog, monkey, or human liver microsomes (1 mg/mL). The incubations were performed in phosphate buffer at pH 7.4, 37° C., with the reaction initiated by the addition of P-NADPH, GSH and/or UDPGA (1, 5 and 2 mM final concentration, respectively). The reaction was terminated by the addition of 3 times incubation volume of acetonitrile after 60 minutes. The sample was centrifuged and the supernatant was transferred, nitrogen blow dried and reconstituted in 50% acetonitrile in water for LC/MS analysis.
(§1) LC/MS/MS analysis was carried out with a Sciex API-4000Qtrap tandem mass spectrometer (Applied Biosystems/Life Technologies, Carlsbad, Calif.) interfaced to a high-performance liquid chromatography system consisting of an Agilent 1200 series pump (Foster City, Calif.) and a LEAP Technologies PAL autoinjector (Carrboro, N.C.).
(§2) Parent/metabolite analysis was conducted in the positive ion mode (ESI) by multiple reaction monitoring of parent. The mobile phases contained 10 mM ammonium acetate in water with 0.05% formic acid (solvent A) and 10 mM ammonium acetate in 50% acetonitrile/50% methanol with 0.05% formic acid (solvent B). For Compound 1, the flow rate was maintained at 1 mL/min and the total run time was 2.5 min. Analytes were separated on a YMC ODS-AQ column (2.1×150 mm; 3 μm) and eluted with a linear gradient as follows: • 1. mobile phase was held for 0.5 min at 5% B, • 2. B was increased from 5% to 95% over the next 0.2 min, • 3. B was held constant for 1.3 min at 95%, and • 4. B was returned to the initial gradient conditions.
(§3) GSH adducts were investigated in microsomes, hepatocytes and rat bile using several methods including the neutral loss of pyroglutamate (129 Da) as well as a precursor ion scans of Compound 1 (105 Da, 318 Da and 438 Da).
For metabolite quantitation, the flow rate was maintained at 0.25 mL/min and the total run time was 60 min. Analytes were separated using a linear gradient as follows: • 1. mobile phase was held for 5 min at 5% B, • 2. […]

[5] = Metabolites generated in vivo (rat bile and urine, rat and dog plasma); conditions: Compound 2 IV 2 mg/kg, bile duct cannulated rats
Procedure: Compound 2 (2 mg/kg) was administered intravenously (IV) to fasted rats as a solution in 0.9% saline via a bolus injection into the jugular vein (2 mg/mL; […]).
Rats with surgically placed bile duct and jugular vein cannula were purchased from Charles River Laboratories and allowed to acclimate for 2 days. Compound 2 was intravenously dosed (2 mg/kg) to three rats as a solution in 0.9% saline (2 mg/mL; 1 mL/kg). Bile samples were collected at time-points 0-2, 2-5 and 5-8, and urine samples were collected at time-points 0-4 and 4-8 hrs post-dose in 8 mL scintillation vials and stored at −40° C. until analysis.
Concentrations of Compound 1 in rat plasma were determined by LC-MS/MS after protein precipitation. Rat plasma (100 μL) was treated with 400 μL of internal standard solution (ISTD, buspirone in acetonitrile containing 1.5% acetic acid) to precipitate proteins. Samples were vortexed and then centrifuged for 10 min at approximately 4,000 rpm (3700×g) at 4° C. (Beckman centrifuge, Brea, Calif.).
as §2
For metabolite quantitation, the flow rate was maintained at 0.25 mL/min and the total run time was 60 min. Analytes were separated using a linear gradient as follows: • 1. mobile phase was held for 5 min at 5% B, • 2. B was increased from 5% to 95% over the next 45 min. • 3. B was held constant for 5 min at 95%, and • 4. B was returned to the initial gradient conditions

[6] = Metabolite identification in hepatocytes; assay type: in vitro ADME, rat, dog, monkey, human; conditions: 30 μM Compound 1
Procedure: Rat, dog, monkey, or human hepatocytes were thawed according to the supplier's instructions. Cells were counted using the Trypan Blue method, and then diluted to 1×10^6 viable cells/ml with KB medium. Compound 1 was tested at 30 μM and incubated for up to 2 hours in rat hepatocytes and 4 hours in dog, monkey or human hepatocytes at 37° C. Reactions were terminated with addition of 3 times incubation volume of acetonitrile, centrifuged, and supernatants were transferred, nitrogen blow dried and reconstituted in 50% acetonitrile in water for LC/MS analysis.
as §1, §2, §3
For metabolite quantitation, the flow rate was maintained at 0.25 mL/min and the total run time was 60 min. Analytes were separated using a linear gradient as follows: • 1. mobile phase was held for 5 min at 5% B, • 2. B was increased from 5% to 95% over the next 45 min. • 3. […]

[7] = 40° C./75% RH for one week, sodium salt

Compound: Cc1noc(-c2ccc(-c3ccc(C4(C(=O)[O-])CC4)cc3)cc2)c1NC(=O)O[C@H](C)c1ccccc1.[Na+] [Amorphous Compound 2, 1-{4′-[3-methyl-4-((R)-1-phenyl-ethoxycarbonylamino)-isoxazol-5-yl]-biphenyl-4-yl}-cyclopropanecarboxylic acid, sodium salt]
- XRPD / solid form after storage [1, 7]: remains largely amorphous
- change of form after GVS analysis (XRPD) [2]: No change of form is observed
- mass gain between 0% and 90% relative humidity ([2]; 25° C.): more than 20%

Compound: Cc1noc(-c2ccc(-c3ccc(C4(C(=O)[O-])CC4)cc3)cc2)c1NC(=O)O[C@H](C)c1ccccc1.[Na+] [Compound 2 (Amorphous)]
- solubility at 2 h ([3]; Target pH 3, pH adjusted with HCl or NaOH): < 1 µg/mL
- solubility at 2 h ([3]; Target pH 4, pH adjusted with HCl or NaOH): < 1 µg/mL
- solubility at 2 h ([3]; Target pH 5, pH adjusted with HCl or NaOH): < 1 µg/mL
- solubility at 2 h ([3]; Target pH 6, pH adjusted with HCl or NaOH): 1.7 µg/mL
- solubility at 2 h ([3]; Target pH 7, pH adjusted with HCl or NaOH): 300 µg/mL
- solubility at 2 h ([3]; Target pH 8, pH adjusted with HCl or NaOH): 5600 µg/mL
- solubility at 2 h ([3]; Target pH 9, pH adjusted with HCl or NaOH): 17000 µg/mL
- solubility at 2 h ([3]; Target pH 11, pH adjusted with HCl or NaOH): 16000 µg/mL

Compound: Cc1noc(-c2ccc(-c3ccc(C4(C(=O)ON[C@H](C=O)CCC(=O)O)CC4)cc3)cc2)c1NC(=O)O[C@H](C)c1ccccc1 [Compound M1]
- metabolite observed in liver microsomes [4]: major metabolites
- metabolite observed in rat bile [5]: major metabolites
- metabolite observed in hepatocytes [6]: major metabolites

Compound: Cc1noc(-c2ccc(-c3ccc(C4(C(=O)O)CC4)cc3)cc2)c1NC(=O)O[C@H](C)c1cccc(O)c1 [Compound M4]
- metabolite observed in liver microsomes [4]: observed
- metabolite observed in rat bile [5]: observed
- metabolite observed in hepatocytes [6]: observed

Compound: Cc1noc(-c2ccc(-c3ccc(C4(C(=O)[O-])CC4)cc3)cc2)c1NC(=O)O[C@H](C)c1ccccc1.[Na+] [Crystalline Compound 2 (Pattern 1), 1-{4′-[3-methyl-4-((R)-1-phenyl-ethoxycarbonylamino)-isoxazol-5-yl]-biphenyl-4-yl}-cyclopropanecarboxylic acid, sodium salt]
- XRPD / solid form after storage ([1]; 25° C./95% RH, a week): no loss of crystallinity
- XRPD / solid form after storage [1, 7]: no loss of crystallinity
- hygroscopicity (comparison) [2]: lower hygroscopicity than its amorphous counterpart
